Laboratory results published in patent US10023565B2, “N,N′ substituted piperidinamine compounds, and preparation method and usage thereof” (Institute of Pharmacology and Toxicology Academy of …, priority 2013, dated 2018).

Experiments:
Assay in all cases: Antitumor bioactivity evaluation, breast cancer cells (ATPlite)
BT474 = type: cell-based; conditions: Homo sapiens, BT-474; test sample 5 μM, 72 hours; read-out: Inhibitory Rate % BT474
Experimental: (§1) Antitumor bioactivity evaluation of the compounds of Examples according to the method described below
(§2) Cells plating: a 100 mm culture dish with overgrown adherent cells was digested with 1 ml 0.25% trypsin (GIBCO) at 37° C. for 5 min, and the reaction was terminated with 2 ml culture medium (containing 10% FBS, GIBCO). The cells were scattered and collected, after counting, diluted to 1×10^5 cells/ml, and seeded into a 96-well plate at 50 μl/well, 5000 cells/well, excluding the peripheral circle of wells in which no cell was added, but PBS was added, 60 wells in total, and then incubated at 37° C. for 24 hours for adhering.
(§3) Addition of the compound and lapatinib: the test sample was diluted to a final concentration of 5 μM, and the culture medium with the corresponding compound solvent concentration was filled in the control well, the compound solvent concentration was kept consistent in each well, 5 parellel wells were set for each concentration, 25 μl each well, 25 μl culture medium (in combined group, 25 μl lapatinib was added till a final concentration of 1 μM) supplemented, followed by incubation at 37° C. for 72 hours.
(§4) Test after incubation at 37° C. for 72 hours: 50 μL of ATPlite kit substrate solution was added in each well, and vibrated for 3 min, followed by placing aside in darkness for 10 min, and then supernatant 100 μl/well was taken and placed on aluminescence test plate; the luminescence test plate that has been fully incubated was placed in a luminescence test instrument, to read luminescence value.
(§5) 1. Cell survival rate (%)=Experimental group RLU/control group RLU×100%. The experimental data were subjected to data analysis and processing by utilizing GraphPad software.

MDA-MB-453 = type: cell-based; conditions: Homo sapiens, test sample 5 μM, 72 hours, read-out: Inhibitory Rate % MDA-MB-453
Experimental: as §1, §2, §3, §4, §5

SK-BR3 = type: cell-based; conditions: Homo sapiens, SK-BR-3; test sample 5 μM, 72 hours; read-out: Inhibitory Rate % SK-BR3
Experimental: as §1, §2, §3, §4, §5

SK/Lap^R1.0 = type: cell-based; conditions: Homo sapiens; test sample 5 μM, 72 hours; read-out: Inhibitory Rate % SKLap^R1.0
Experimental: as §1, §2, §3, §4, §5

MDA-MB-361 = type: cell-based; conditions: Homo sapiens, test sample 5 μM, 72 hours, read-out: Inhibitory Rate % MDA-MB-361
Experimental: as §1, §2, §3, §4, §5

BT/Lap^R1.0 = type: cell-based, human; conditions: Homo sapiens; test sample 5 μM, 72 hours; read-out: Inhibitory Rate % BT/Lap^R1.0
Experimental: as §1, §2, §3, §4, §5

CCOc1ncc(CN2CCC(N(C)Cc3c(Cl)cccc3Cl)CC2)s1 [Example 9, N-methyl-N-(2,6-dichlorobenzyl)-N-{[1-(2-ethoxythiazol-5-yl)methyl]piperidin-4-yl}amine]
inhibition at 5 µM (BT474): 38.2% | inhibition at 5 µM (MDA-MB-453): 51.5% | inhibition at 5 µM (SK-BR3): 17.9% | inhibition at 5 µM (SK/Lap^R1.0): 5.1% | inhibition at 5 µM (MDA-MB-361): 24.5% | inhibition at 5 µM (BT/Lap^R1.0): 25.6%

CSc1ncc(CN2CCC(N(C)Cc3cc(Cl)ccc3Cl)CC2)s1 [Example 34, N-methyl-N-(2,5-dichlorobenzyl)-N-{1-[(2-methylthiothiazol-5-yl)methyl]piperidin-4-yl}amine]
inhibition at 5 µM (BT474): 42.3% | inhibition at 5 µM (MDA-MB-453): 59.4% | inhibition at 5 µM (SK-BR3): 23.3% | inhibition at 5 µM (SK/Lap^R1.0): 11.4% | inhibition at 5 µM (MDA-MB-361): 25.4% | inhibition at 5 µM (BT/Lap^R1.0): 34.4%

CNC1CCN(c2nccc(OC)n2)CC1 [Example 46, N-methyl-N-[1-(4-methoxypyrimidin-2-yl)piperidin-4-yl]amine]
inhibition at 5 µM (BT474): 73.1% | inhibition at 5 µM (MDA-MB-453): 79.2% | inhibition at 5 µM (SK-BR3): 85.9% | inhibition at 5 µM (SK/Lap^R1.0): 71% | inhibition at 5 µM (MDA-MB-361): 53.2% | inhibition at 5 µM (BT/Lap^R1.0): 70%

Cc1ccccc1CN(C)C1CCN(Cc2cnc(Cl)s2)CC1 [Example 21, N-methyl-N-(2-methylbenzyl)-N-{[1-(2-chlorothiazol-5-yl)methyl]piperidin-4-yl}amine]
inhibition at 5 µM (BT474): 1.5% | inhibition at 5 µM (MDA-MB-453): 3.5% | inhibition at 5 µM (SK-BR3): 9.7% | inhibition at 5 µM (SK/Lap^R1.0): 5.1% | inhibition at 5 µM (MDA-MB-361): 4.4% | inhibition at 5 µM (BT/Lap^R1.0): 4%

COc1nccc(N2CCC(N(C)Cc3cccc(Cl)c3)CC2)n1 [Example 55, N-methyl-N-(3-chlorobenzyl)-N-[1-(2-methoxypyrimidin-4-yl)piperidin-4-yl]amine]
inhibition at 5 µM (BT474): 36.2% | inhibition at 5 µM (MDA-MB-453): 56.7% | inhibition at 5 µM (SK-BR3): 18.5% | inhibition at 5 µM (SK/Lap^R1.0): 15.1% | inhibition at 5 µM (MDA-MB-361): 23.2% | inhibition at 5 µM (BT/Lap^R1.0): 26.2%

COc1cc(N2CCC(N(C)Cc3cccc(Cl)c3)CC2)ncn1 [Example 63, N-methyl-N-(3-chlorobenzyl)-N-[1-(6-methoxypyrimidin-4-yl)piperidin-4-yl]amine]
inhibition at 5 µM (BT474): 11.9% | inhibition at 5 µM (MDA-MB-453): 23.8% | inhibition at 5 µM (SK-BR3): 12.6% | inhibition at 5 µM (SK/Lap^R1.0): 24.8% | inhibition at 5 µM (MDA-MB-361): 25.6% | inhibition at 5 µM (BT/Lap^R1.0): 9.4%

CCOc1ncc(CN2CCC(N(C)Cc3ccc(F)cc3)CC2)s1 [Example 7, N-methyl-N-(4-fluorobenzyl)-N-{[1-(2-ethoxythiazol-5-yl)methyl]piperidin-4-yl}amine]
inhibition at 5 µM (BT474): 36.4% | inhibition at 5 µM (MDA-MB-453): 52.9% | inhibition at 5 µM (SK-BR3): 26% | inhibition at 5 µM (SK/Lap^R1.0): 25.1% | inhibition at 5 µM (MDA-MB-361): 24.2% | inhibition at 5 µM (BT/Lap^R1.0): 20.7%

CN(Cc1ccc(C#N)cc1)C1CCN(Cc2cnc(Cl)s2)CC1 [Example 15, N-methyl-N-(4-cyanobenzyl)-N-{1-[(2-chlorothiazol-5-yl)methyl]piperidin-4-yl}amine]
inhibition at 5 µM (BT474): 69.3% | inhibition at 5 µM (MDA-MB-453): 68.5% | inhibition at 5 µM (SK-BR3): 41.5% | inhibition at 5 µM (SK/Lap^R1.0): 7.5% | inhibition at 5 µM (MDA-MB-361): 35.6% | inhibition at 5 µM (BT/Lap^R1.0): 68.7%

CSc1ncc(CN2CCC(N(C)Cc3ccc(Cl)cc3Cl)CC2)s1 [Example 33, N-methyl-N-(2,4-dichlorobenzyl)-N-{1-[(2-methylthiothiazol-5-yl)methyl]piperidin-4-yl}amine]
inhibition at 5 µM (BT474): 70% | inhibition at 5 µM (MDA-MB-453): 72.4% | inhibition at 5 µM (SK-BR3): 37.8% | inhibition at 5 µM (SK/Lap^R1.0): 40.4% | inhibition at 5 µM (MDA-MB-361): 36.3% | inhibition at 5 µM (BT/Lap^R1.0): 66.3%

COc1nccc(N2CCC(N(C)Cc3cccc(F)c3)CC2)n1 [Example 56, N-methyl-N-(3-fluorobenzyl)-N-[1-(2-methoxypyrimidin-4-yl)piperidin-4-yl]amine]
inhibition at 5 µM (BT474): 9.9% | inhibition at 5 µM (MDA-MB-453): 27.9% | inhibition at 5 µM (SK-BR3): 9.2% | inhibition at 5 µM (SK/Lap^R1.0): 3.9% | inhibition at 5 µM (MDA-MB-361): 8.5% | inhibition at 5 µM (BT/Lap^R1.0): 10.5%

CCOc1ncc(CN2CCC(N(C)Cc3ccccc3C#N)CC2)s1 [Example 2, N-methyl-N-o-cyanobenzyl-N-{1-[(2-ethoxythiazol-5-yl)methyl]piperidin-4-yl}amine]
inhibition at 5 µM (BT474): 17.6% | inhibition at 5 µM (MDA-MB-453): 43.8% | inhibition at 5 µM (SK-BR3): 13.6% | inhibition at 5 µM (SK/Lap^R1.0): 7.2% | inhibition at 5 µM (MDA-MB-361): 12.3% | inhibition at 5 µM (BT/Lap^R1.0): 19.4%

COc1cc(N2CCC(N(C)Cc3ccccc3Cl)CC2)ncn1 [Example 58, N-methyl-N-(2-chlorobenzyl)-N-[1-(6-methoxypyrimidin-4-yl)piperidin-4-yl]amine]
inhibition at 5 µM (BT474): 27.7% | inhibition at 5 µM (MDA-MB-453): 46.7% | inhibition at 5 µM (SK-BR3): 13.5% | inhibition at 5 µM (SK/Lap^R1.0): 29% | inhibition at 5 µM (MDA-MB-361): 20.3% | inhibition at 5 µM (BT/Lap^R1.0): 18.9%

CN(Cc1c(F)cccc1Cl)C1CCN(Cc2cnc(Cl)s2)CC1 [Example 19, N-methyl-N-(2-fluoro-6-chlorobenzyl)-N-{[1-(2-chlorothiazol-5-yl)methyl]piperidin-4-yl}amine]
inhibition at 5 µM (BT474): 10.6% | inhibition at 5 µM (MDA-MB-453): 22.4% | inhibition at 5 µM (SK-BR3): 9.8% | inhibition at 5 µM (SK/Lap^R1.0): 1.5% | inhibition at 5 µM (MDA-MB-361): 10.4% | inhibition at 5 µM (BT/Lap^R1.0): 3.2%

COc1cc(N2CCC(N(C)Cc3ccc(C#N)cc3)CC2)ncn1 [Example 66, N-methyl-N-(p-cyanobenzyl)-N-[1-(6-methoxypyrimidin-4-yl)piperidin-4-yl]amine]
inhibition at 5 µM (BT474): 25.1% | inhibition at 5 µM (MDA-MB-453): 46.1% | inhibition at 5 µM (SK-BR3): 17.3% | inhibition at 5 µM (SK/Lap^R1.0): 8.8% | inhibition at 5 µM (MDA-MB-361): 20.3% | inhibition at 5 µM (BT/Lap^R1.0): 16.9%

CSc1nccc(N2CCC(N(C)Cc3cccc(Cl)c3)CC2)n1 [Example 39, N-methyl-N-(3-chlorobenzyl)-N-[1-(2-methylthiopyrimidin-4-yl)piperidin-4-yl]amine]
inhibition at 5 µM (BT474): 35.1% | inhibition at 5 µM (MDA-MB-453): 65.7% | inhibition at 5 µM (SK-BR3): 26.4% | inhibition at 5 µM (SK/Lap^R1.0): 24.4% | inhibition at 5 µM (MDA-MB-361): 39.1% | inhibition at 5 µM (BT/Lap^R1.0): 25.1%

COc1cc(N2CCC(N(C)Cc3ccccc3C#N)CC2)ncn1 [Example 65, N-methyl-N-(2-cyanobenzyl)-N-[1-(6-methoxypyrimidin-4-yl)piperidin-4-yl]amine]
inhibition at 5 µM (BT474): 65.8% | inhibition at 5 µM (MDA-MB-453): 66.1% | inhibition at 5 µM (SK-BR3): 23.3% | inhibition at 5 µM (SK/Lap^R1.0): 16.8% | inhibition at 5 µM (MDA-MB-361): 42.7% | inhibition at 5 µM (BT/Lap^R1.0): 62.2%

CSc1ncc(CN2CCC(N(C)Cc3ccc(Cl)c(Cl)c3)CC2)s1 [Example 30, N-methyl-N-(3,4-dichlorobenzyl)-N-{1-[(2-methylthiothiazol-5-yl)methyl]piperidin-4-yl}amine]
inhibition at 5 µM (BT474): 62.6% | inhibition at 5 µM (MDA-MB-453): 69.9% | inhibition at 5 µM (SK-BR3): 42.4% | inhibition at 5 µM (SK/Lap^R1.0): 10.1% | inhibition at 5 µM (MDA-MB-361): 42.1% | inhibition at 5 µM (BT/Lap^R1.0): 67.1%

CSc1ncc(CN2CCC(N(C)Cc3c(Cl)cccc3Cl)CC2)s1 [Example 32, N-methyl-N-(2,6-dichlorobenzyl)-N-{1-[(2-methylthiothiazol-5-yl)methyl]piperidin-4-yl}amine]
inhibition at 5 µM (BT474): 54.9% | inhibition at 5 µM (MDA-MB-453): 63.7% | inhibition at 5 µM (SK-BR3): 24.3% | inhibition at 5 µM (SK/Lap^R1.0): 26.8% | inhibition at 5 µM (MDA-MB-361): 45.2% | inhibition at 5 µM (BT/Lap^R1.0): 54.9%

COc1cc(N2CCC(N(C)Cc3cccc(F)c3)CC2)ncn1 [Example 68, N-methyl-N-(3-fluorobenzyl)-N-[1-(6-methoxypyrimidin-4-yl)piperidin-4-yl]amine]
inhibition at 5 µM (BT474): 5.4% | inhibition at 5 µM (MDA-MB-453): 9.4% | inhibition at 5 µM (SK-BR3): 5.2% | inhibition at 5 µM (SK/Lap^R1.0): 30.1% | inhibition at 5 µM (MDA-MB-361): 8.4% | inhibition at 5 µM (BT/Lap^R1.0): 5.6%
